# Patent publication US7704508B2, “Babesia subtilisin” (New York Blood Center, priority 2007, dated 2010)
# Starred links: 1 amine or outer side, 2 acyl side, 3 side chain; linkers in the order of their positions; H or OH if unused. Non-standard residues stand in square brackets, D forms with d. Residues, ends and D or L forms follow the SMILES beside them. ξ: configuration not given here. *: point of attachment. Sta = CC(C)C[C@H](N)[C@@H](O)CC(=O)O; Isovaleryl = CC(C)CC(=O)*; ξF = NC(Cc1ccccc1)C(=O)O; CO = O=C([*:1])[*:2]
# Experiments:
# B. divergens [1] = experiment: Effect of protease inhibitors on B. divergens growth in culture (parasitemia by YOYO-1 flow cytometry, T72); format: cell-based; settings: for inhibition of growth / decrease of parasitemia after 72 h: 50 and 100 μM, compared to control; for Growth T72 50 μM (inhibition) / Growth T72 100 μM (inhibition) / inhibition at 50 µM / inhibition at 100 µM: T72
# Method: (§1) Parasitemia for B. divergens was assessed in human RBCs using a modification of the methods of Barkan et al. (Int. J. Parasitol. 30:649-53, 2000) and Jimenez-Diaz et al. (Cytometry A 67:27-36, 2005), both of which are incorporated by reference herein for all they contain regarding assessment of parasitemia. DNA content was measured after staining with YOYO-1 (a high affinity cell-impermeant dye that increases green fluorescence by 1000-fold when bound to dsDNA) observed infected erythrocytes compared with non-infected human erythrocytes for B. divergens.
# (§2) To assess the effect of various protease inhibitors, parasitemia was assessed in 180 parasite samples taken at different time points (0 and after 10, 24, 48 and 72 h). In parallel with the evaluation of the parasitemia by FACS (fluorescence activated cell sorting), 60 random parasite samples were analyzed by light microscopy using Giemsa-stained thin blood smears, with 500-1000 RBCs being counted for each smear. […] Integration of the numbers of events represented in the right peak provides a direct estimate of the parasitemia, where one infected cell is one event.
# (§3) Protease inhibitors were tested for their ability to inhibit the invasion and growth of B. divergens in vitro.
# (§4) The effects of EGTA, a chelating agent capable of binding metal ions including Ca^2+, on the invasion and growth of B. divergens was tested. EGTA cannot permeate the biological membrane of cells so its effects are only on the chelation of extracellular ions. As many serine proteases require Ca^2+ for activity, EGTA also functions as a serine protease inhibitor.
# B. divergens [2] = experiment: Effect of protease inhibitors on B. divergens erythrocyte invasion (parasitemia by YOYO-1 flow cytometry, T10); format: cell-based; settings: for inhibition of invasion: 50 and 100 μM, relative to control; for inhibition at 50 µM / inhibition at 100 µM: Erythrocyte
# Method: as §1, §2, §3, §4
# BdSUB-1 = experiment: Effect of brefeldin A on BdSUB-1 processing during secretory transport (western blot); format: cell-based, B. divergens; settings: 40 μg/ml BFA in methanol, 1 hour, 37° C., western blot with PfSUB1m antibodies
# Method: Monitoring the effect of brefeldin A. The effects of brefeldin A (BFA, Sigma) on BdSUB-1 processing during secretory transport was monitored using ^35S-radiolabeled B. divergens cultures. The drug was prepared as a stock solution in methanol at 1 mg ml^−1 and then added to parasite cultures to a final concentration of 40 μg ml^−1 BFA. Methanol was added to the control cultures and cells were cultured at 37° C. in a […], 5% nitrogen and 5% oxygen for 1 hour. Samples were washed in PBS, lysed in saponin buffer and analyzed by western blot using the anti-PfSUB1m antibodies.
# BdSUB-1 undergoes post-translational processing during secretory transport. […] In order to examine whether BdSUB-1 undergoes intracellular post-translational processing steps within the parasite secretory pathway, brefeldin A (BFA) was employed, which blocks secretory transport of proteins from the endoplasmic reticulum (ER) to the Golgi apparatus. Western-blot analysis was performed on parasite lysates that were obtained from cultures grown in the presence or absence of BFA, using anti-PfSUB1m antibodies. […] Thus, BdSUB-1 is initially synthesized as a large precursor protein of ˜78 kDA and cleavage of the signal peptide results in the formation of p75, which is the largest detectable protein seen in the assays. This p75 is then processed to p55, which then gets converted to p48 in the Golgi. […]
smiles,measurement,setting,value
"O=c1oc(Cl)c(Cl)c2ccccc12 [3,4 DCI]",Growth T72 50 μM (inhibition),B. divergens [1],70.7 ± 1.4%
same,Growth T72 100 μM (inhibition),B. divergens [1],76.0 ± 2.3%
same,inhibition of growth / decrease of parasitemia after 72 h,B. divergens [1],76%
same,Invasion T10 50 μM (inhibition),B. divergens [2]; T10,38.0 ± 2.0%
same,Invasion T10 100 μM (inhibition),B. divergens [2]; T10,43.0 ± 1.2%
same,inhibition of invasion,B. divergens [2],40%
"NCCc1ccc(S(=O)(=O)F)cc1 [ABSF, 4-(2-aminoethyl)benzenesulfonyl fluoride]",Growth T72 50 μM (inhibition),B. divergens [1],8.8 ± 7.4%
same,Growth T72 100 μM (inhibition),B. divergens [1],28.0 ± 5.0%
same,Invasion T10 50 μM (inhibition),B. divergens [2]; T10,3.3 ± 6.8%
same,Invasion T10 100 μM (inhibition),B. divergens [2]; T10,34.0 ± 9.0%
"Cc1ccc(S(=O)(=O)N[C@@H](CCCCN)C(=O)CCl)cc1 [TLCK, N-α-tosyl-L-lysine chloromethyl ketone]",Growth T72 50 μM (inhibition),B. divergens [1],92.1 ± 3.0%
same,Growth T72 100 μM (inhibition),B. divergens [1],94.1 ± 0.9%
same,inhibition of growth / decrease of parasitemia after 72 h,B. divergens [1],approximately 90%
same,morphology of the parasites during invasion and growth inhibition assay,B. divergens [1]; microscopy of treated cultures,no alteration in the morphology of the parasites
same,Invasion T10 50 μM (inhibition),B. divergens [2]; T10,64.0 ± 3.1%
same,Invasion T10 100 μM (inhibition),B. divergens [2]; T10,60.0 ± 2.0%
same,inhibition of invasion,B. divergens [2],~60%
"C[C@H]1CCC/C=C/[C@@H]2C[C@H](O)C[C@H]2[C@H](O)/C=C/C(=O)O1 [BFA, brefeldin A]",BdSUB-1 processing / secretory transport,BdSUB-1,blocked the secretory transport of BdSUB-1 from the ER to the Golgi apparatus
"O=S(=O)(F)Cc1ccccc1 [PMSF, phenylmethylsulfonyl fluoride]",Growth T72 50 μM (inhibition),B. divergens [1],45.0 ± 5.2%
same,Growth T72 100 μM (inhibition),B. divergens [1],46.7 ± 3.3%
same,Invasion T10 50 μM (inhibition),B. divergens [2]; T10,28.0 ± 8.9%
same,Invasion T10 100 μM (inhibition),B. divergens [2]; T10,35.0 ± 18.0%
"CC(C)CC(=O)N[C@H](C(=O)N[C@H](C(=O)N[C@@H](CC(C)C)[C@@H](O)CC(=O)N[C@@H](C)C(=O)N[C@@H](CC(C)C)[C@@H](O)CC(=O)O)C(C)C)C(C)C [Pepstatin, pepstatin] (Isovaleryl-VV[Sta]A[Sta]-OH)",inhibition at 50 µM,B. divergens [1],9.1 ± 3.1%
same,inhibition at 100 µM,B. divergens [1],16 ± 9.2%
same,inhibition at 50 µM,B. divergens [2]; T10,17 ± 6.4%
same,inhibition at 100 µM,B. divergens [2]; T10,2 ± 0.8%
"CC(C)[C@H](NC(=O)[C@H](CCCNC(=N)N)NC(=O)NC(Cc1ccccc1)C(=O)O)C(=O)N[C@H](C=O)CCCNC(=N)N (stereo partly drawn) [Antipain, (1-carboxy-2-phenylethyl)carbamoyl-L-arginyl-L-valylargininal] ({ξF-CO}-Arg-Val-Arg-aldehyde)",inhibition at 50 µM,B. divergens [1],15 ± 8.4%
same,inhibition at 100 µM,B. divergens [1],16 ± 8.5%
same,inhibition at 50 µM,B. divergens [2]; T10,33 ± 6.5%
same,inhibition at 100 µM,B. divergens [2]; T10,37.7 ± 14.1%
"O=C(O)CN(CCOCCOCCN(CC(=O)O)CC(=O)O)CC(=O)O [EGTA, ethylene glycol tetraacetic acid]",Growth T72 1 mM (inhibition),B. divergens [1],82.0 ± 0.4%
same,Growth T72 3 mM (inhibition),B. divergens [1],83.0 ± 0.5%
same,"growth of the parasite after 72 h, lower than the control",B. divergens [1],83%
same,Invasion T10 1 mM (inhibition),"B. divergens [2]; 1 mM, T10",48.0 ± 3.1%
same,Invasion T10 3 mM (inhibition),"B. divergens [2]; 3 mM, T10",52.0 ± 2.6%
same,reversal of inhibition of invasion and growth by Ca2+,B. divergens [2]; Ca2+ added in the same concentration as EGTA,completely reversed
same,percentage of inhibition on invasion,"B. divergens [2]; EGTA 1, 2 and 3 mM",50%
